The text below walks through data of patent EP4786487A1, “PEPTIDE” (Peptidream Inc, priority 2023, dated 2025).

Common to all, as to type: cell-based
Assay [1] addresses T1, Myostatin (Homo sapiens, UniProt O14793).
T1 construct: active myostatin (also called mature myostatin) is a homodimer consisting of two C-terminal growth factor domains; purchased R&D systems 788-G8/CF
T1 sequence (O14793 267-375): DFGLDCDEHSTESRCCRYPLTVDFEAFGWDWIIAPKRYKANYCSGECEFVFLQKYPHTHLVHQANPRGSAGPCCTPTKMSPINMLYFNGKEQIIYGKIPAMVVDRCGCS
Briefly: Reporter gene assay for myostatin signaling in HepG2 cell line, Evaluation Procedure (1), myostatin inhibition. The following applies: read-out: IC50 (Luciferase) Myostatin HepG2. In short, it runs like this: (§1)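 HepG2 cells transfected with pGL3(CAGA)12-luciferase reporter, serum-starved in 0.1% BSA medium, then stimulated with myostatin or GDF-11 plus 4-fold peptide dilutions (0.006–100 nmol/L for myostatin, 0.12–2000 nmol/L for GDF-11) for 20–24 h at 37 °C. Luminescence read with One-Glo; IC50 calculated.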

For assay [2], the system named is Myostatin. Described as above. The conditions noted are these: GDF-11 IC50 versus Myostatin IC50. The method in brief:
as §1

The target of a further assay is T2, GDF-11 (Homo sapiens, UniProt O95390).
T2 construct: purchased R&D systems 1958-GD-G8/CF
T2 sequence (O95390 299-407): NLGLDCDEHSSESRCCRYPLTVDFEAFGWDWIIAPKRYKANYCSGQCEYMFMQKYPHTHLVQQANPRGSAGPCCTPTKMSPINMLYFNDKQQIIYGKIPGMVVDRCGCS
Briefly: Reporter gene assay for myostatin signaling in HepG2 cell line, Evaluation Procedure (1), GDF-11 inhibition. The conditions noted are these: read-out: IC50 (Luciferase) GDF-11 HepG2. In short, it runs like this: as §1
On the technique in general: Reporter assays use an easily measured gene product as a stand-in for the process of interest.

Like-named read-outs stand apart in the source and are kept apart here. Starred links: 1 amine or outer side, 2 acyl side, 3 side chain; linkers in the order of their positions; H or OH if unused. Positions of bridges follow the written chain, without caps; N, C: chain ends. Non-standard residues stand in square brackets, D forms with d. Residues, ends and D or L forms follow the SMILES beside them. *: point of attachment. X6 = CS(=O)(=O)c1ccc(-c2ccc(C[C@H](N[*:1])C(=O)[*:2])cc2)cc1; Phe(3-OCH2COOH) = N[C@@H](Cc1cccc(OCC(=O)O)c1)C(=O)O; Piperidine(4-CH2CH2CONH2) = NC(=O)CCC1CCN(*)CC1; Phe(4-COOH) = N[C@@H](Cc1ccc(C(=O)O)cc1)C(=O)O; Trp(6-aza) = N[C@@H](Cc1c[nH]c2cnccc12)C(=O)O; Piperazinyl(4-CH2COOH) = O=C(O)CN1CCN(*)CC1; Piperidinyl(4-CH2COOH) = O=C(O)CC1CCN(*)CC1; Gly(decyl) = CCCCCCCCCC[C@H](N)C(=O)O; NMeF = CN[C@@H](Cc1ccccc1)C(=O)O; NMeE = CN[C@@H](CCC(=O)O)C(=O)O; Sar = CNCC(=O)O

A word on the IC50: it is the concentration needed to halve the response being measured.

For `CCCCCCCCCC[C@@H]1NC(=O)[C@H](Cc2ccccc2)N(C)C(=O)[C@H](CCCNC(=N)N)NC(=O)[C@H](Cc2ccc(C(=O)O)cc2)NC(=O)[C@H](Cc2cccc(OCC(=O)O)c2)NC(=O)CN(C)C(=O)[C@H]([C@@H](C)OC)NC(=O)[C@H](Cc2ccccc2)N(C)C(=O)[C@H](Cc2ccc(O)cc2)NC(=O)[C@H](Cc2c[nH]c3cnccc23)NC(=O)[C@H](C)NC(=O)[C@H](C)NC(=O)CSC[C@H](C(=O)N2CCC(CC(=O)O)CC2)NC(=O)[C@H](Cc2ccccc2)N(C)C(=O)[C@H](CCC(=O)O)N(C)C1=O` [Myostatin_99_v341] ({CH2CO}-AA[Trp(6-aza)]Y[NMeF]T(Me)[Sar][Phe(3-OCH2COOH)][Phe(4-COOH)]R[NMeF][Gly(decyl)][NMeE][NMeF][dC]-{Piperidinyl(4-CH2COOH)}; thioether N-15), the values for the IC50 on Myostatin [1] (Method B: Myostatin 1 ng/mL) and at GDF-11 (Method B: GDF-11 1 ng/mL) were 0.76 nM and 132 nM, respectively. The same compound returned a Selectivity with Myostatin [2] (Method B) of 173.9.

For `CCCCCCCCCC[C@@H]1NC(=O)[C@H](Cc2ccccc2)N(C)C(=O)[C@H](CCCNC(=N)N)NC(=O)[C@H](Cc2ccc(C(=O)O)cc2)NC(=O)[C@H](Cc2cccc(OCC(=O)O)c2)NC(=O)[C@H]2CCCN2C(=O)[C@H]([C@@H](C)CC)NC(=O)[C@H](Cc2ccccc2)N(C)C(=O)[C@H](Cc2ccc(O)cc2)NC(=O)[C@H](Cc2ccc(-c3ccc(S(C)(=O)=O)cc3)cc2)NC(=O)[C@H](C)NC(=O)[C@H](C)NC(=O)CSC[C@H](C(=O)N2CCN(CC(=O)O)CC2)NC(=O)[C@H](Cc2ccccc2)N(C)C(=O)[C@H](CCC(=O)O)N(C)C1=O` [Myostatin_99_v343] ({CH2CO}-AA[X6]Y[NMeF]I[dP][Phe(3-OCH2COOH)][Phe(4-COOH)]R[NMeF][Gly(decyl)][NMeE][NMeF][dC]-{Piperazinyl(4-CH2COOH)}; thioether N-15), the results for the IC50 at Myostatin [1] (Method C: Myostatin 1.5 ng/mL) and on GDF-11 (Method C: GDF-11 1 ng/mL) were 0.1 nM and 14.3 nM, respectively. In the assay on Myostatin [2] (Method C), this compound registered a Selectivity of 137.1.

Consider `CCCCCCCCCC[C@@H]1NC(=O)[C@H](Cc2ccccc2)N(C)C(=O)[C@H](CCCNC(=N)N)NC(=O)[C@H](Cc2ccc(C(=O)O)cc2)NC(=O)[C@H](Cc2cccc(OCC(=O)O)c2)NC(=O)[C@H]2CCCN2C(=O)[C@H]([C@@H](C)CC)NC(=O)[C@H](Cc2ccccc2)N(C)C(=O)[C@H](Cc2ccc(O)cc2)NC(=O)[C@H](Cc2c[nH]c3ccccc23)NC(=O)[C@H](C)NC(=O)[C@H](C)NC(=O)CSC[C@H](C(=O)N2CCC(CCC(N)=O)CC2)NC(=O)[C@H](Cc2ccccc2)N(C)C(=O)[C@H](CCC(=O)O)N(C)C1=O` [Myostatin_99_v344] ({CH2CO}-AAWY[NMeF]I[dP][Phe(3-OCH2COOH)][Phe(4-COOH)]R[NMeF][Gly(decyl)][NMeE][NMeF][dC]-{Piperidine(4-CH2CH2CONH2)}; thioether N-15), for which the IC50 on Myostatin [1] (Method C: Myostatin 1.5 ng/mL) was 0.08 nM; on GDF-11 (Method C: GDF-11 1 ng/mL), 62.3 nM. In addition, the Selectivity in the assay with Myostatin [2] (Method C) is recorded as 812.6.

Regarding `CCCCCCCCCC[C@@H]1NC(=O)[C@H](Cc2ccccc2)N(C)C(=O)[C@H](CCCNC(=N)N)NC(=O)[C@H](Cc2ccc(C(=O)O)cc2)NC(=O)[C@H](Cc2cccc(OCC(=O)O)c2)NC(=O)CN(C)C(=O)[C@H]([C@@H](C)CC)NC(=O)[C@H](Cc2ccccc2)N(C)C(=O)[C@H](Cc2ccc(O)cc2)NC(=O)[C@H](Cc2c[nH]c3ccccc23)NC(=O)[C@H](C)NC(=O)[C@H](C)NC(=O)CSC[C@H](C(=O)N2CCC(CCC(N)=O)CC2)NC(=O)[C@H](Cc2ccccc2)N(C)C(=O)[C@H](CCC(=O)O)N(C)C1=O` [Myostatin_99_v346] ({CH2CO}-AAWY[NMeF]I[Sar][Phe(3-OCH2COOH)][Phe(4-COOH)]R[NMeF][Gly(decyl)][NMeE][NMeF][dC]-{Piperidine(4-CH2CH2CONH2)}; thioether N-15), the figures for the IC50 on Myostatin [1] (Method C: Myostatin 1.5 ng/mL) and at GDF-11 (Method C: GDF-11 1 ng/mL) were 0.09 nM and 10.5 nM, respectively. The compound also displayed a Selectivity in the assay with Myostatin [2] (Method C) of 116.0.
